Reference: US4104285A, “Taurine and glycine derivatives” (Hoffmann-La Roche Inc., priority 1977, dated 1978)

Experiments:
rat pancreatic lipase = molecular target: T1, rat pancreatic lipase (Rattus norvegicus, UniProt P27657); experiment: inhibition of rat pancreatic lipase activity in vitro; format: biochemical; conditions: [14C]-triolein emulsion, pH 8.6, 20 min. at 37° C
T1 sequence (P27657 17-465): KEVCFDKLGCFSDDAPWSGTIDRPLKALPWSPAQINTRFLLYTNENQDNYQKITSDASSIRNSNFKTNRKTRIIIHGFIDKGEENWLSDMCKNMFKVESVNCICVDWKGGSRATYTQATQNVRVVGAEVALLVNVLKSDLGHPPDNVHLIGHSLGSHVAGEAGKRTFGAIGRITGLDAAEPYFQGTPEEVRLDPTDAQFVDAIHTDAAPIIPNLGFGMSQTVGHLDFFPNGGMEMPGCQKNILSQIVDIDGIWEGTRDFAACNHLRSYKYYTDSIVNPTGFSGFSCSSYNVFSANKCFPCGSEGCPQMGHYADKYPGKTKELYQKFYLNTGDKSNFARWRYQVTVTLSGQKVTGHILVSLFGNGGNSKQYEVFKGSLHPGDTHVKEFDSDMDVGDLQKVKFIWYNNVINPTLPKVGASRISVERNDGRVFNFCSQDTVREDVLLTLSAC
Description: Dietary long-chain triglycerides must be hydrolyzed by pancreatic lipase in the duodenum before absorption can occur. […] The capacity of compounds of formula I-C to inhibit rat pancreatic lipase in vitro was investigated by testing the following compounds: The ability of compounds to inhibit rat pancreatic lipase is determined by analyzing the nmoles of free fatty acid [oleic acid] released from [^14 C]-triolein. Compounds of A and B are added to an emulsion consisting of: 200,000 dmp ^14 C-triolein, 7.5 mg triolein, 0.75 mg sodium taurocholate, 15 mg bovine serum albumin and 0.9 ml 0.2 M tris-HCl - 0.15 M NaCl, pH 8.6, per assay. Water and/or pancreatic lipase is added to make an assay volume of 1.0 ml. The emulsion is incubated for 20 min. at 37° C in a shaking water bath. The reaction is stopped by the addition of isopropanol; H2 SO4 (40:1). The lipids are extracted twice with 3 ml volumes of hexane. The liberated fatty acids are extracted with 2 ml of 0.1 N aqueous KOH in 50% methanol. A 1 ml aliquot of the KOH layer is placed in a scintillation vial with 10 ml of 2,5-bis-2-(5-tertiary butyl benzoxazolyl)thiophene. The radioactivity is determined in a scintillation counter. Data are expressed a nmoles free fatty acid [oleic acid] related.

bile flow = experiment: stimulation of bile flow in rats, duodenal infusion; format: in vivo, female albino rats; conditions: 100 mg by duodenal infusion in 4ml emulsion, compared to rats which received only the emulsion
Description: The compounds of formula I-A are active in stimulation of bile flow which results in the dissolution of gall stones. This can be seen from the fact that when 100 mg of N-(3α,12α-dihydroxy-5β-24-norcholanoyl)-taurine was administered by duodenal infusion to female albino rats in a 4ml emulsion of sodium taurocholate in […], the flow of bile was increased 15% during the first 8 hours and 30% during the period of 9 to 15 hours after administration compared to the flow in rats which received only the emulsion without the taurine compound. […] This enabled the production of lymph at a constant rate, the infusion of a bile salt and the simultaneous collection of bile.

[1] = tested on: cholesterol level in the lymph; experiment: cholesterol level in thoracic duct lymph of rats after oral administration with 4-14C-cholesterol emulsion; format: in vivo, female albino rats (Charles River); conditions: 100mg orally, compared to control (Na-TC)
Description: The lowering of the cholesterol levels in mammals by the administration of the compound of formula I-B can be seen from the fact that when 100mg of N-(3α,12α-dihydroxyetiocholanoyl)glycine was administered orally to female albino rats, the cholesterol level in the lymph was decreased after administration by 86% over the first 8 hours and 94% over the next 9 to 24 hr. period after administration as compared to the control. In this procedure, female albino rats (Charles River), weighing 300 ± 10 g were kept on a Purina chow diet ad libitum until the time of operation. […] This preparation enabled the production of lymph at a constant rate, the infusion of a bile salt, and the simultaneous collection of bile. All animals received, after operation, a continuous duodenal infusion of sodium taurocholate (Na-TC) in 0.85% NaCl. One day after operation, the rats were given, by stomach intubation, an emulsion containing about 4% triolein, 20 μ C of 4-^14 C-cholesterol (Specific Activity 61.7 mC/mM, 159 μ C/mg), 2 mg of cholesterol, in addition to protein, carbohydrate, and saline. Both the Na-TC and the cholesterol carrier employed gave a single spot on either thin layer or glass fiber paper chromatograph so no further purification was attempted. […] An aliquot of the lipid extract was placed on a small piece of glass fiber paper and counted. […]

triglyceride absorption = experiment: effect on triglyceride absorption in vivo, rise in plasma triglycerides after oral load of corn oil; set-up: species or system rats
Description: The ability of compound I to inhibit the absorption of dietary triglyceride in rats is determined by analyzing the rise in serum triglycerides after an oral load of corn oil. […] In this procedure blood samples (0.4 ml) were collected from the rat tail 0, 2, 4, 6, 8 and 24 hours after compound administration. Each rat is its own control. Plasma samples were analyzed for triglyceride content by the procedure set forth in Kessler and Lederer, Tehnicon Symposium 1965 Automation in Analytical Chemistry Ed L. Skeggs, published Mediad Inc. New York (1966) pp 341. The data in Table I is expressed as mg% change in plasma triglyceride levels compared to zero time control values at each time interval. This change in plasma triglycerides was determined by calculating the difference between the triglyceride level at each time point compared to zero time contol level.

Row | SMILES | Ki (rat pancreatic lipase) | increase in flow of bile (bile flow; during the first 8 hours after administration) | increase in flow of bile (bile flow; period of 9 to 15 hours after administration) | decrease of cholesterol level in the lymph (4-14C-cholesterol, % decrease over the control) ([1]; first 8 hours after administration) | decrease of cholesterol level in the lymph (4-14C-cholesterol, % decrease over the control) ([1]; next 9 to 24 hr. period after administration) | ability to inhibit absorption of triglyceride (triglyceride absorption; 1.1 m moles/kg orally 15 minutes before oral corn oil, 24 hour fasted rats) | Change in Plasma Triglyceride Levels, 4 hr (triglyceride absorption; 1.1 m moles/kg orally 15 minutes before oral corn oil, 24 hour fasted rats, 4 hr vs zero time, Control 98 ± 31) | Change in Plasma Triglyceride Levels, 6 hr (triglyceride absorption; 1.1 m moles/kg orally 15 minutes before oral corn oil, 24 hour fasted rats, 6 hr vs zero time, Control 161 ± 28) | Change in Plasma Triglyceride Levels, 8 hr (triglyceride absorption; 1.1 m moles/kg orally 15 minutes before oral corn oil, 24 hour fasted rats, 8 hr vs zero time, Control 391 ± 58) | Change in Plasma Triglyceride Levels, 24 hr (triglyceride absorption; 1.1 m moles/kg orally 15 minutes before oral corn oil, 24 hour fasted rats, 24 hr vs zero time, Control 130 ± 36) | Change in Plasma Triglyceride Levels, 2 hr (triglyceride absorption; po)
1 | C[C@H](CC(=O)NCCS(=O)(=O)O)[C@H]1CC[C@H]2[C@@H]3CC[C@@H]4C[C@H](O)CC[C@]4(C)[C@H]3C[C@H](O)[C@]12C [Compound A, N-(3α,12α-dihydroxy-5β-24-norcholanoyl)-taurine] | 7 mM | 15% | 30% | – | – | – | – | – | – | – | –
2 | C[C@H](CC(=O)NCC(=O)O)[C@H]1CC[C@H]2[C@@H]3CC[C@@H]4C[C@H](O)CC[C@]4(C)[C@H]3C[C@H](O)[C@]12C [Compound B, N-(3α,12α-dihydroxy-5β-24-norcholanoyl)glycine] | 8 mM | – | – | – | – | – | – | – | – | – | –
3 | C[C@]12CC[C@@H](O)C[C@H]1CC[C@@H]1[C@@H]2C[C@H](O)[C@]2(C)[C@@H](C(=O)NCC(=O)O)CC[C@@H]12 [N-(3α,12α-dihydroxyetiocholanoyl)glycine] | – | – | – | 86% | 94% | inhibit absorption of triglyceride | 107 ± 17 mg % | 130 ± 17 mg % | 167 ± 22 mg % | 46 ± 5 mg % | 29 ± 3 mg %
